Laboratory results from ChEMBL document CHEMBL1158720, “Ambigol C and 2,4-dichlorobenzoic acid, natural products produced by the terrestrial cyanobacterium Fischerella ambigua” (J Nat Prod, 2005).
Converted amounts (≈) assume the structure as drawn. The source made the active and inactive calls. No cut-off for these calls is given here.

Columns and labels:
[1] = tested on: Biomphalaria glabrata; assay: Molluscicidal activity against Biomphalaria glabrata at 100 ug/ml; format: functional, organism-based
[2] = tested on: Microbotryum violaceum; assay: Antimicrobial activity against […] at 50 ug/filter disk; format: functional
[3] = tested on: L6; assay: Cytotoxicity against rat L6 cells; format: functional
[4] = tested on: Mycotypha microspora; assay: Antimicrobial activity against Mycotypha microspora at 50 ug/filter disk; format: functional
[5] = tested on: Mycobacterium tuberculosis; assay: Antimicrobial activity against Mycobacterium tuberculosis; format: functional
[6] = tested on: Trypanosoma cruzi; assay: Antitrypanosomal activity against Trypanosoma cruzi trypomastigotes; format: functional
[7] = tested on: Aspergillus pseudoglaucus; assay: Antimicrobial activity against Eurotium repens at 50 ug/filter disk; format: functional
[8] = tested on: Plasmodium falciparum; assay: Antiplasmodial activity against chloroquine-resistant Plasmodium falciparum K1; format: functional, organism-based
[9] = tested on: Trypanosoma brucei rhodesiense; assay: Antitrypanosomal activity against Trypanosoma brucei rhodesiense trypomastigotes; format: functional
[10] = tested on: Plasmodium falciparum; assay: Antiplasmodial activity against chloroquine-sensitive Plasmodium falciparum NF54; format: functional, organism-based
[11] = tested on: [Chlorella] fusca; assay: Antimicrobial activity against Chlorella fusca at 50 ug/filter disk; format: functional, Scenedesmus fuscus
[12] = tested on: Fusarium oxysporum; assay: Antimicrobial activity against Fusarium oxysporum at 50 ug/filter disk; format: functional
[13] = tested on: Escherichia coli; assay: Antimicrobial activity against Escherichia coli at 50 ug/filter disk; format: functional
[14] = tested on: Priestia megaterium; assay: Antimicrobial activity against Bacillus megaterium at 50 ug/filter disk; format: functional

| SMILES | Activity [1] | inhibition zone (IZ) [2] [mm] | MIC [3] [µg/mL] | inhibition zone (IZ) [4] [mm] | MIC [5] [µg/mL] | MIC [6] [µg/mL] | inhibition zone (IZ) [7] [mm] | IC50 [8] [µg/mL] | MIC [9] [µg/mL] | IC50 [10] [µg/mL] | inhibition zone (IZ) [11] [mm] | inhibition zone (IZ) [12] [mm] | Activity [13] | inhibition zone (IZ) [14] [mm] | Activity [4] | Activity [7] | Activity ([11]; Scenedesmus fuscus) | Activity [12] | inhibition zone (IZ) [13] [mm] |
| --- | --- | --- | --- | --- | --- | --- | --- | --- | --- | --- | --- | --- | --- | --- | --- | --- | --- | --- | --- |
| Oc1c(Cl)cc(Cl)cc1-c1c(Cl)cc(Cl)c(Oc2ccc(Cl)cc2Cl)c1O [AMBIGOL A] | Active | 7 | 33 (≈ 68 µM) | 4 | 64 (≈ 132 µM) | 33 (≈ 68 µM) | 7 | 0.846 (≈ 1.74 µM) | 33 (≈ 68 µM) | 1.62 (≈ 3.35 µM) | 3 | 8 | inactive | 8 |  |  |  |  |  |
| Oc1c(Cl)c(Oc2ccc(Cl)cc2Cl)cc(Oc2ccc(Cl)cc2Cl)c1Cl [AMBIGOL C] | inactive | 5 | 100 (≈ 206 µM) |  | > 128 | 100 (≈ 206 µM) |  | 1.54 (≈ 3.17 µM) | 11 (≈ 22.7 µM) | 2.5 (≈ 5.15 µM) |  |  | inactive | 7 | inactive | inactive | inactive | inactive |  |
| C[C@@H]1CC[C@H]2[C@@H](C)C(=O)O[C@@H]3O[C@@]4(C)CC[C@@H]1[C@]32OO4 [ARTEMISININ] |  |  |  |  |  |  |  | 0.001 (≈ 0.00354 µM) |  | 0.003 (≈ 0.0106 µM) |  |  |  |  |  |  |  |  |  |
| Nc1nc(N)nc(Nc2ccc([As]3SCC(CO)S3)cc2)n1 (configuration not stated) [MELARSOPROL] |  |  |  |  |  | 0.011 |  |  | 0.011 |  |  |  |  |  |  |  |  |  |  |
| Clc1ccc(COC(Cn2ccnc2)c2ccc(Cl)cc2Cl)c(Cl)c1 (configuration not stated) [MICONAZOLE] |  | 20 |  | 20 |  |  | 20 |  |  |  | 20 | 20 |  | 20 |  |  |  |  | 20 |
| CO[C@H]1/C=C/O[C@@]2(C)Oc3c(C)c(O)c4c(O)c(c(/C=N/N5CCN(C)CC5)c(O)c4c3C2=O)NC(=O)/C(C)=C\C=C\[C@H](C)[C@H](O)[C@@H](C)[C@@H](O)[C@@H](C)[C@H](OC(C)=O)[C@@H]1C [RIFAMPIN] |  |  |  |  | 0.125 (≈ 0.152 µM) |  |  |  |  |  |  |  |  |  |  |  |  |  |  |
| CN[C@@H]1[C@H](O[C@H]2[C@H](O[C@H]3[C@H](O)[C@@H](O)[C@H](N=C(N)N)[C@@H](O)[C@@H]3N=C(N)N)O[C@@H](C)[C@]2(O)C=O)O[C@@H](CO)[C@H](O)[C@H]1O.CN[C@@H]1[C@H](O[C@H]2[C@H](O[C@H]3[C@H](O)[C@@H](O)[C@H](N=C(N)N)[C@@H](O)[C@@H]3N=C(N)N)O[C@@H](C)[C@]2(O)C=O)O[C@@H](CO)[C@H](O)[C@H]1O.O=S(=O)(O)O.O=S(=O)(O)O.O=S(=O)(O)O [STREPTOMYCIN SULFATE] |  | 4 |  | 4 |  |  | 4 |  |  |  | 4 | 4 |  | 4 |  |  |  |  | 4 |
